From ChEMBL document CHEMBL4038287, “Design, synthesis, and in vitro evaluation of novel antifungal triazoles” (2017)
Values after ≈ are worked out from the molar mass of the structure shown.

Key:
Type in all cases: functional
Nakaseomyces glabratus = experiment: Antifungal activity against Candida glabrata isolate 537 by micro-broth dilution method
Cryptococcus neoformans = experiment: Antifungal activity against Cryptococcus neoformans isolate 32605 by micro-broth dilution method
Candida albicans [1] = experiment: Antifungal activity against Candida albicans isolate Y0109 by micro-broth dilution method
Aspergillus fumigatus = experiment: Antifungal activity against Aspergillus fumigatus isolate 7544 by micro-broth dilution method
Trichophyton rubrum = experiment: Antifungal activity against Trichophyton rubrum isolate cmccftla by micro-broth dilution method
Nannizzia gypsea = experiment: Antifungal activity against Microsporum gypseum isolate cmccftla by micro-broth dilution method
Candida albicans [2] = experiment: Antifungal activity against Candida albicans isolate SC5314 by micro-broth dilution method
Candida parapsilosis = experiment: Antifungal activity against Candida parapsilosis isolate 22019 by micro-broth dilution method; conditions: Lodderomyces parapsilosis

SMILES	MIC80 (Nakaseomyces glabratus) [µg/mL]	MIC80 (Cryptococcus neoformans) [µg/mL]	MIC80 (Candida albicans [1]) [µg/mL]	MIC80 (Aspergillus fumigatus) [µg/mL]	MIC80 (Trichophyton rubrum) [µg/mL]	MIC80 (Nannizzia gypsea) [µg/mL]	MIC80 (Candida albicans [2]) [µg/mL]	MIC80 (Candida parapsilosis) [µg/mL]
C[C@@H](c1cc(-c2ccc(F)cc2)no1)[C@](O)(Cn1cncn1)c1ccc(F)cc1F	0.0313 (≈ 0.0755 µM)	0.125 (≈ 0.302 µM)	0.125 (≈ 0.302 µM)	2 (≈ 4.83 µM)	0.0625 (≈ 0.151 µM)	0.5 (≈ 1.21 µM)	0.25 (≈ 0.603 µM)	0.0625 (≈ 0.151 µM)
C[C@@H](c1cc(-c2ccc(F)cc2F)no1)[C@](O)(Cn1cncn1)c1cc(F)ccc1F	0.0625 (≈ 0.145 µM)	0.0625 (≈ 0.145 µM)	0.125 (≈ 0.289 µM)	> 8	1 (≈ 2.31 µM)	4 (≈ 9.25 µM)	0.25 (≈ 0.578 µM)	1 (≈ 2.31 µM)
CC(=O)N1CCN(c2ccc(OCC3COC(Cn4ccnc4)(c4ccc(Cl)cc4Cl)O3)cc2)CC1 (stereo unspecified) [KETOCONAZOLE]	0.0625 (≈ 0.118 µM)	0.0625 (≈ 0.118 µM)	0.25 (≈ 0.47 µM)	4 (≈ 7.53 µM)	1 (≈ 1.88 µM)	1 (≈ 1.88 µM)	0.125 (≈ 0.235 µM)	0.5 (≈ 0.941 µM)
C[C@@H](c1cc(-c2ccc(F)cc2)no1)[C@](O)(Cn1cncn1)c1cc(F)ccc1F	0.0625 (≈ 0.151 µM)	0.0625 (≈ 0.151 µM)	0.125 (≈ 0.302 µM)	> 8	1 (≈ 2.41 µM)	> 8	0.125 (≈ 0.302 µM)	0.25 (≈ 0.603 µM)
C[C@@H](c1cc(-c2ccccc2F)no1)[C@](O)(Cn1cncn1)c1ccc(F)cc1F	0.0313 (≈ 0.0755 µM)	0.125 (≈ 0.302 µM)	0.0625 (≈ 0.151 µM)	2 (≈ 4.83 µM)	0.0625 (≈ 0.151 µM)	0.5 (≈ 1.21 µM)	0.0313 (≈ 0.0755 µM)	0.125 (≈ 0.302 µM)
C[C@@H](c1cc(-c2ccc(C(F)(F)F)cc2)no1)[C@](O)(Cn1cncn1)c1ccc(F)cc1F	1 (≈ 2.15 µM)	0.125 (≈ 0.269 µM)	0.125 (≈ 0.269 µM)	> 8	2 (≈ 4.31 µM)	2 (≈ 4.31 µM)	0.5 (≈ 1.08 µM)	1 (≈ 2.15 µM)
C[C@@H](c1cc(-c2ccc(OC(F)(F)F)cc2)no1)[C@](O)(Cn1cncn1)c1ccc(F)cc1F	0.0625 (≈ 0.13 µM)	0.125 (≈ 0.26 µM)	0.0313 (≈ 0.0652 µM)	8 (≈ 16.7 µM)	0.125 (≈ 0.26 µM)	4 (≈ 8.33 µM)	0.125 (≈ 0.26 µM)	0.5 (≈ 1.04 µM)
C[C@@H](c1cc(-c2ccc(Cl)cc2F)no1)[C@](O)(Cn1cncn1)c1ccc(F)cc1F	0.0156 (≈ 0.0348 µM)	0.0313 (≈ 0.0697 µM)	0.125 (≈ 0.279 µM)	8 (≈ 17.8 µM)	0.25 (≈ 0.557 µM)	2 (≈ 4.46 µM)	0.125 (≈ 0.279 µM)	0.125 (≈ 0.279 µM)
C[C@@H](c1cc(-c2cc(F)cc(F)c2)no1)[C@](O)(Cn1cncn1)c1ccc(F)cc1F	0.0625 (≈ 0.145 µM)	0.125 (≈ 0.289 µM)	0.0625 (≈ 0.145 µM)	4 (≈ 9.25 µM)	0.25 (≈ 0.578 µM)	2 (≈ 4.63 µM)	0.125 (≈ 0.289 µM)	0.25 (≈ 0.578 µM)
C[C@@H](c1nc(-c2ccc(C#N)cc2)cs1)[C@](O)(Cn1cncn1)c1ccc(F)cc1F [RAVUCONAZOLE]	0.125 (≈ 0.286 µM)	0.125 (≈ 0.286 µM)	0.0625 (≈ 0.143 µM)	2 (≈ 4.57 µM)	0.125 (≈ 0.286 µM)	1 (≈ 2.29 µM)	0.0625 (≈ 0.143 µM)	0.25 (≈ 0.571 µM)
C[C@@H](c1cc(-c2ccc(Cl)c(Cl)c2)no1)[C@](O)(Cn1cncn1)c1ccc(F)cc1F	0.25 (≈ 0.537 µM)	0.25 (≈ 0.537 µM)	0.0625 (≈ 0.134 µM)	> 8	0.5 (≈ 1.07 µM)	4 (≈ 8.6 µM)	0.25 (≈ 0.537 µM)	0.5 (≈ 1.07 µM)
C[C@@H](c1cc(-c2ccccc2F)no1)[C@](O)(Cn1cncn1)c1cc(F)ccc1F	0.0625 (≈ 0.151 µM)	0.0625 (≈ 0.151 µM)	0.5 (≈ 1.21 µM)	> 8	2 (≈ 4.83 µM)	> 8	0.5 (≈ 1.21 µM)	1 (≈ 2.41 µM)
C[C@@H](c1cc(-c2c(F)cc(F)cc2F)no1)[C@](O)(Cn1cncn1)c1ccc(F)cc1F	0.0625 (≈ 0.139 µM)	0.0625 (≈ 0.139 µM)	0.125 (≈ 0.278 µM)	2 (≈ 4.44 µM)	0.5 (≈ 1.11 µM)	1 (≈ 2.22 µM)	0.25 (≈ 0.555 µM)	0.125 (≈ 0.278 µM)
C[C@@H](c1cc(-c2ccc(Cl)c(F)c2)no1)[C@](O)(Cn1cncn1)c1ccc(F)cc1F	0.25 (≈ 0.557 µM)	0.25 (≈ 0.557 µM)	0.0156 (≈ 0.0348 µM)	> 8	0.5 (≈ 1.11 µM)	4 (≈ 8.91 µM)	0.0313 (≈ 0.0697 µM)	0.5 (≈ 1.11 µM)
C[C@@H](c1cc(-c2ccc(OC(F)F)cc2)no1)[C@](O)(Cn1cncn1)c1ccc(F)cc1F	0.0625 (≈ 0.135 µM)	0.125 (≈ 0.27 µM)	0.0625 (≈ 0.135 µM)	8 (≈ 17.3 µM)	0.125 (≈ 0.27 µM)	1 (≈ 2.16 µM)	0.0625 (≈ 0.135 µM)	0.125 (≈ 0.27 µM)
C[C@@H](c1cc(-c2ccc([N+](=O)[O-])cc2)no1)[C@](O)(Cn1cncn1)c1ccc(F)cc1F	0.5 (≈ 1.13 µM)	0.125 (≈ 0.283 µM)	0.125 (≈ 0.283 µM)	> 8	1 (≈ 2.27 µM)	2 (≈ 4.53 µM)	0.125 (≈ 0.283 µM)	0.5 (≈ 1.13 µM)

SMILES	MIC80 (Nakaseomyces glabratus) [µg/mL]	MIC80 (Cryptococcus neoformans) [µg/mL]	MIC80 (Candida albicans [1]) [µg/mL]	MIC80 (Aspergillus fumigatus) [µg/mL]	MIC80 (Trichophyton rubrum) [µg/mL]	MIC80 (Nannizzia gypsea) [µg/mL]	MIC80 (Candida albicans [2]) [µg/mL]	MIC80 (Candida parapsilosis) [µg/mL]
C[C@@H](c1cc(-c2c(F)cccc2F)no1)[C@](O)(Cn1cncn1)c1cc(F)ccc1F	0.125 (≈ 0.289 µM)	0.0625 (≈ 0.145 µM)	1 (≈ 2.31 µM)	> 8	4 (≈ 9.25 µM)	> 8	0.5 (≈ 1.16 µM)	1 (≈ 2.31 µM)
C[C@@H](c1cc(-c2ccc(Cl)cc2)no1)[C@](O)(Cn1cncn1)c1ccc(F)cc1F	0.125 (≈ 0.29 µM)	0.125 (≈ 0.29 µM)	0.0313 (≈ 0.0726 µM)	4 (≈ 9.28 µM)	0.125 (≈ 0.29 µM)	1 (≈ 2.32 µM)	0.125 (≈ 0.29 µM)	0.125 (≈ 0.29 µM)
C[C@@H](c1cc(-c2cccc(F)c2F)no1)[C@](O)(Cn1cncn1)c1ccc(F)cc1F	0.125 (≈ 0.289 µM)	0.125 (≈ 0.289 µM)	0.0625 (≈ 0.145 µM)	2 (≈ 4.63 µM)	0.125 (≈ 0.289 µM)	0.5 (≈ 1.16 µM)	0.0625 (≈ 0.145 µM)	0.25 (≈ 0.578 µM)
C[C@@H](c1cc(-c2ccc(F)cc2F)no1)[C@](O)(Cn1cncn1)c1ccc(F)cc1F	0.0313 (≈ 0.0724 µM)	0.125 (≈ 0.289 µM)	0.0625 (≈ 0.145 µM)	2 (≈ 4.63 µM)	0.0625 (≈ 0.145 µM)	0.5 (≈ 1.16 µM)	0.0625 (≈ 0.145 µM)	0.125 (≈ 0.289 µM)
C[C@@H](c1cc(-c2ccc(S(C)(=O)=O)cc2)no1)[C@](O)(Cn1cncn1)c1ccc(F)cc1F	0.25 (≈ 0.527 µM)	0.25 (≈ 0.527 µM)	0.125 (≈ 0.263 µM)	8 (≈ 16.9 µM)	1 (≈ 2.11 µM)	4 (≈ 8.43 µM)	0.125 (≈ 0.263 µM)	0.125 (≈ 0.263 µM)
C[C@@H](c1cc(-c2cc(F)ccc2F)no1)[C@](O)(Cn1cncn1)c1cc(F)ccc1F	0.125 (≈ 0.289 µM)	0.125 (≈ 0.289 µM)	0.5 (≈ 1.16 µM)	> 8	8 (≈ 18.5 µM)	> 8	1 (≈ 2.31 µM)	1 (≈ 2.31 µM)
Cc1ccc(-c2cc([C@H](C)[C@](O)(Cn3cncn3)c3ccc(F)cc3F)on2)cc1	0.25 (≈ 0.609 µM)	0.125 (≈ 0.305 µM)	0.25 (≈ 0.609 µM)	8 (≈ 19.5 µM)	0.25 (≈ 0.609 µM)	2 (≈ 4.87 µM)	0.0625 (≈ 0.152 µM)	0.125 (≈ 0.305 µM)
C[C@@H](c1cc(-c2cc(F)ccc2F)no1)[C@](O)(Cn1cncn1)c1ccc(F)cc1F	0.0625 (≈ 0.145 µM)	0.125 (≈ 0.289 µM)	0.0625 (≈ 0.145 µM)	4 (≈ 9.25 µM)	0.125 (≈ 0.289 µM)	1 (≈ 2.31 µM)	0.0625 (≈ 0.145 µM)	0.125 (≈ 0.289 µM)
C[C@@H](c1cc(-c2ccc(C#N)cc2)no1)[C@](O)(Cn1cncn1)c1ccc(F)cc1F	0.0625 (≈ 0.148 µM)	0.125 (≈ 0.297 µM)	0.25 (≈ 0.593 µM)	8 (≈ 19 µM)	0.125 (≈ 0.297 µM)	1 (≈ 2.37 µM)	0.25 (≈ 0.593 µM)	0.125 (≈ 0.297 µM)
C[C@@H](c1cc(-c2c(F)ccc(F)c2F)no1)[C@](O)(Cn1cncn1)c1ccc(F)cc1F	0.0625 (≈ 0.139 µM)	0.0625 (≈ 0.139 µM)	0.125 (≈ 0.278 µM)	2 (≈ 4.44 µM)	0.0625 (≈ 0.139 µM)	0.5 (≈ 1.11 µM)	0.25 (≈ 0.555 µM)	0.125 (≈ 0.278 µM)
C[C@@H](c1cc(-c2ccc(Cl)cc2F)no1)[C@](O)(Cn1cncn1)c1cc(F)ccc1F	0.0313 (≈ 0.0697 µM)	0.125 (≈ 0.279 µM)	0.25 (≈ 0.557 µM)	> 8	1 (≈ 2.23 µM)	8 (≈ 17.8 µM)	0.5 (≈ 1.11 µM)	1 (≈ 2.23 µM)
C[C@@H](c1cc(-c2ccc(F)c(F)c2)no1)[C@](O)(Cn1cncn1)c1ccc(F)cc1F	0.0156 (≈ 0.0361 µM)	0.125 (≈ 0.289 µM)	0.125 (≈ 0.289 µM)	8 (≈ 18.5 µM)	0.5 (≈ 1.16 µM)	4 (≈ 9.25 µM)	0.125 (≈ 0.289 µM)	0.125 (≈ 0.289 µM)
C[C@@H](c1cc(-c2c(F)cccc2F)no1)[C@](O)(Cn1cncn1)c1ccc(F)cc1F	0.0625 (≈ 0.145 µM)	0.125 (≈ 0.289 µM)	0.0625 (≈ 0.145 µM)	2 (≈ 4.63 µM)	0.125 (≈ 0.289 µM)	1 (≈ 2.31 µM)	0.125 (≈ 0.289 µM)	0.125 (≈ 0.289 µM)
C[C@@H](c1cc(-c2cccc(F)c2F)no1)[C@](O)(Cn1cncn1)c1cc(F)ccc1F	0.125 (≈ 0.289 µM)	0.125 (≈ 0.289 µM)	0.5 (≈ 1.16 µM)	> 8	8 (≈ 18.5 µM)	> 8	0.5 (≈ 1.16 µM)	2 (≈ 4.63 µM)
C[C@@H](c1cc(-c2ccc(F)c(F)c2)no1)[C@](O)(Cn1cncn1)c1cc(F)ccc1F	0.0156 (≈ 0.0361 µM)	0.125 (≈ 0.289 µM)	0.125 (≈ 0.289 µM)	> 8	1 (≈ 2.31 µM)	> 8	0.125 (≈ 0.289 µM)	0.25 (≈ 0.578 µM)
OC(Cn1cncn1)(Cn1cncn1)c1ccc(F)cc1F [FLUCONAZOLE]	2 (≈ 6.53 µM)	0.5 (≈ 1.63 µM)	0.25 (≈ 0.816 µM)	> 64	8 (≈ 26.1 µM)	32 (≈ 104 µM)	0.5 (≈ 1.63 µM)	2 (≈ 6.53 µM)
